The target in the assay is T1, GABABR1a/GABABR2 heterodimer (Homo sapiens, UniProt O75899+Q9UBS5).
T1 construct: expressed in transfected cells; membranes prepared from it)
Put plainly: [35S]-GTPγS binding assay, potency of PAM. It counts as biochemical. The settings on record: potency of the positive allosteric modulator; log EC50 for GABA plotted against log concentration of modulator. An excerpt:
GABABR1a and GABABR2 were cloned from human brain cDNA and subcloned into pCI-Neo(Promega) and pALTER-1 (Promega), respectively. A GABABR1a-Gαqi5 fusion protein expression vector was constructed using the pCI-Neo-GABABR1a cDNA plasmid and pLEC1-Gαqi5 (Molecular Devices, CA). In order to make the Gαqi5 pertussis toxin insensitive, Cys356 was mutated to Gly using standard PCR methodology with the primers 5′-[…]-3′ (forward) and 5′-GCGGCCG […]-3′ (reverse). The Gαqi5mut cDNA was ligated into the BamHI and NotI sites of pcDNA3.0 (Invitrogen). The GABAB R1a coding sequence was amplified by PCR from pCI-Neo-GABABR1a using the primers, 5′-[…]-3′ (forward) and 5′-[…]-3′ (reverse) and subcloned into the BamHI site of pcDNA3.0-Gαqi5mut. […]
[^35S]-GTPγS binding assays were performed at 30° C. for 45 min in membrane buffer (100 mM NaCl, […], 1 mM EDTA, 5 mM HEPES, pH 7.4) containing 0.025 μg/μl of membrane protein (prepared from the cell lines described above) with 0.01% bovine serum albumin (fatty acid free), 10 μM GDP, 100 μM DTT and 0.53 nM [^35S]-GTPγS (Amersham Pharmacia Biotech) in a final volume of 200 μl. Nonspecific binding was determined in the presence of 20 μM GTPγS. […]
In general terms: GTPγS is a poorly hydrolysed GTP analogue; its binding reports G protein activation.

For orientation: EC50 means the concentration giving half of the maximal effect. Higher therefore signals lower potency in that assay.

T1 sequence (Q9UBS5 15-961 limits assumed): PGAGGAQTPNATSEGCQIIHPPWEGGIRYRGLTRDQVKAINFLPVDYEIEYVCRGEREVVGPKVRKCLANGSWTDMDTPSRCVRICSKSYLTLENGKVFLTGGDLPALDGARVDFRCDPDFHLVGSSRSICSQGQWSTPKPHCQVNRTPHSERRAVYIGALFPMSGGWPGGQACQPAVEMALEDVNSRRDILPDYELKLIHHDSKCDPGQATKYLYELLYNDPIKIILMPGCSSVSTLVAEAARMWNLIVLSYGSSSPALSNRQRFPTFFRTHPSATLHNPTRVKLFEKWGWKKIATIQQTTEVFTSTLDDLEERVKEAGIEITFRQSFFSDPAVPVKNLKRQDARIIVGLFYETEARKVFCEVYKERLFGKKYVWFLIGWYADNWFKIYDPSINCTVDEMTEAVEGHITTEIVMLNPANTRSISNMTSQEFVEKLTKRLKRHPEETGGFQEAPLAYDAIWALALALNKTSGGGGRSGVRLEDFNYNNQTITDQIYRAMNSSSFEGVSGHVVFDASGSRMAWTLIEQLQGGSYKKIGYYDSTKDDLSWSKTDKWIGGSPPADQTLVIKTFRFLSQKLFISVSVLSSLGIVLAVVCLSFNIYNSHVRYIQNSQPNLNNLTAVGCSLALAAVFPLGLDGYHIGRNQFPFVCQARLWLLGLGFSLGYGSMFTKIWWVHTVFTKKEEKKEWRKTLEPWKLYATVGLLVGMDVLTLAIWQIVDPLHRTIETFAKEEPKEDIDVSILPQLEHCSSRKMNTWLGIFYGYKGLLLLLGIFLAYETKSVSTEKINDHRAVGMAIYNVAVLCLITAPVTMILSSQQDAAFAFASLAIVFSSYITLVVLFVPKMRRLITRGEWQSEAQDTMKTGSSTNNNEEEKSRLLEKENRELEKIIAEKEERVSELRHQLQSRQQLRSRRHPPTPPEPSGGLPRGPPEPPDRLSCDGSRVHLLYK
T1 sequence (O75899 42-941): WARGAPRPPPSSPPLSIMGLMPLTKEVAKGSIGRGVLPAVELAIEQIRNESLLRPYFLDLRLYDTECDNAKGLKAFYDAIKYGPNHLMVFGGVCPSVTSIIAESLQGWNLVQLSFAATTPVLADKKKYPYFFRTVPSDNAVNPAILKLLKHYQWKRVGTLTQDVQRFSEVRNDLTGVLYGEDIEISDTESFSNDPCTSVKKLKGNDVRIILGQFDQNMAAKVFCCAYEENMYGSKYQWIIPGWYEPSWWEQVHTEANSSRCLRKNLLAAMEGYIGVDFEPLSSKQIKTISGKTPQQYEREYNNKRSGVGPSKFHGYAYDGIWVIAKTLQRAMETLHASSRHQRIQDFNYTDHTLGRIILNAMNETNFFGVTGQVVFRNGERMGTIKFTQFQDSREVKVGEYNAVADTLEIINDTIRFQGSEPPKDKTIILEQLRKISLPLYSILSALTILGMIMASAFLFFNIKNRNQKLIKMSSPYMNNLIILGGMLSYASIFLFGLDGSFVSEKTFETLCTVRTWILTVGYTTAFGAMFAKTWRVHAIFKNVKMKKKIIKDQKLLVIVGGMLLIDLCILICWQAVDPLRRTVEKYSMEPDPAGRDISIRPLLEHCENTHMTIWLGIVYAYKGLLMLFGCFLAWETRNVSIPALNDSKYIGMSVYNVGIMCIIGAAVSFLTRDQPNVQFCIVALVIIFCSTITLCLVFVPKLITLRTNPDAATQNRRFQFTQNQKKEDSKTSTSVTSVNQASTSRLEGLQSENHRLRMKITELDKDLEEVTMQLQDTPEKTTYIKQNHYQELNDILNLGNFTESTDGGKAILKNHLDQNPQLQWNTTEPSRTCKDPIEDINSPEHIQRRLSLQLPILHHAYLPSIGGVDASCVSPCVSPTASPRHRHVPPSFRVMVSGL

The compound `CCOC(=O)c1nc(C(C)C)sc1NC(=O)C(CC)c1ccccc1` (centres unmarked) [Example 16, Ethyl 2-isopropyl-5-[(2-phenylbutanoyl)amino]-1,3-thiazole-4-carboxylate] returned an EC50 of 1.96 µM.

`CCOC(=O)c1nc(C(C)C)oc1NC(=O)c1ccc(C(C)(C)C)cc1` [Example 21, Ethyl 5-[(4-tert-butylbenzoyl)amino]-2-isopropyl-1,3-oxazole-4-carboxylate] yielded an EC50 of 7.23 µM.

Values taken from patent US20080312291A1, “Heterocyclic Gaba-b Modulators” (priority 2005, published 2008).
